The record followed here is ChEMBL document CHEMBL5104192, “Late-Stage Functionalization with Cysteine Staples Generates Potent and Selective Melanocortin Receptor-1 Agonists” (J Med Chem, 2022).

*1 amine or outer side, *2 acyl side, *3 side chain or, on linkers, in order; H or OH if unused. Where a SMILES comes first, the peptide text is derived from it. Bridges are numbered along the chain shown (N, C = ends). [ ]: non-standard residue; d: D form. X2 = NCCOCCOCCNC(=O)OCC1C2CCc3c([*:1])nnc([*:2])c3CCC21; X1 = n1nc([*:2])nnc1[*:1]; Nle = CCCC[C@H](N)C(=O)O

Assay [1] has as its target T1, Melanocortin receptor 3 (Homo sapiens, UniProt P41968). As to the kind of experiment: Agonist activity at human MC3R expressed in HEK2936E cells assessed as cAMP production in presence of IBMX by time resolved fluorescence assay. Type of assay: functional, cell-based. As to conditions: for pEC50: hek2936e.
Assay [2] addresses T2, Melanocyte-stimulating hormone receptor (Homo sapiens, UniProt Q01726). The assay can be described thus: Displacement of [125I]-NDP-alpha-MSH from human MC1R expressed in HEK2936E cell membrane measured after 16 to 23 hrs by 1450 microbeta trilux scintillation proximity assay. Type of assay: cell membranes. As to conditions: for pKi: hek2936e.
The target in the next assay is Melanocortin receptor 5 (Homo sapiens, UniProt P33032). As to the kind of experiment: Agonist activity at human MC5R expressed in HEK2936E cells assessed as cAMP production in presence of IBMX by time resolved fluorescence assay. Type of assay: functional, cell-based.
The target of assay [3] is T2, Melanocyte-stimulating hormone receptor. As to the kind of experiment: Agonist activity at human MC1R expressed in HEK2936E cells assessed as cAMP production in presence of IBMX by time resolved fluorescence assay. Type of assay: functional, cell-based. As to conditions: for pEC50: hek2936e.
Assay [4] deals with T1, Melanocortin receptor 3. The assay can be described thus: Displacement of [125I]-NDP-alpha-MSH from human MC3R expressed in HEK2936E cell membrane measured after 16 to 23 hrs by 1450 microbeta trilux scintillation proximity assay. Type of assay: cell membranes. Particulars: for pKi: hek2936e.
The species named for assay [5] is Homo sapiens. The assay can be described thus: Selectivity ratio of EC50 for human MC3R to EC50 for human MC1R.
The species entered for assay [6] is Homo sapiens. As to the kind of experiment: Selectivity ratio of Ki for human MC4R to Ki for human MC1R.
For assay [7], the species on record is Homo sapiens. The assay can be described thus: Selectivity ratio of Ki for human MC3R to Ki for human MC1R.
In assay [8] the target is T3, Melanocortin receptor 4 (Homo sapiens, UniProt P32245). As to the kind of experiment: Displacement of [125I]-NDP-alpha-MSH from human MC4R expressed in HEK2936E cell membrane measured after 16 to 23 hrs by 1450 microbeta trilux scintillation proximity assay. The format is cell membranes. Particulars: for pKi: hek2936e.
Assay [9] has as its target T3, Melanocortin receptor 4. As to the kind of experiment: Agonist activity at human MC4R expressed in HEK2936E cells assessed as cAMP production in presence of IBMX by time resolved fluorescence assay. The format is functional, cell-based. As to conditions: for pEC50: hek2936e.
Assay [10] is filed under the species Homo sapiens. The assay can be described thus: Selectivity ratio of EC50 for human MC4R to EC50 for human MC1R.

T1 sequence (P41968 whole entry): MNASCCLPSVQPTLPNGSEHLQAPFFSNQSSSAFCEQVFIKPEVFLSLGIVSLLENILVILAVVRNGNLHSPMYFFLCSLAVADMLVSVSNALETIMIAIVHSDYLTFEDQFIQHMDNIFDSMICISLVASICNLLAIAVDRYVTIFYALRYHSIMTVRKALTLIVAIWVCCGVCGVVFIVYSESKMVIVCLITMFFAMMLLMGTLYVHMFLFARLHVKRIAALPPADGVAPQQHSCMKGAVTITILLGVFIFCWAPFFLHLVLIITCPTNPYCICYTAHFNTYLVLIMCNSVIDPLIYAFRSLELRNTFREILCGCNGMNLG
T3 sequence (P32245 whole entry): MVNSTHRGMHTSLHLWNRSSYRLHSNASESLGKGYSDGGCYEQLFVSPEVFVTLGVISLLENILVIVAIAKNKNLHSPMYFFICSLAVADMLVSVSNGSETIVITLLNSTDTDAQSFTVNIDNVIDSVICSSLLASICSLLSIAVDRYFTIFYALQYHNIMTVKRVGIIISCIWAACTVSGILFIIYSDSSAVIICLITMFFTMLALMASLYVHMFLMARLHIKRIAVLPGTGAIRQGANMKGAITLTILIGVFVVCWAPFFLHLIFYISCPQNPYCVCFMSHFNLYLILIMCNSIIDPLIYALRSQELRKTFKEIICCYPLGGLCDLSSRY
Sequence of Melanocortin receptor 5 (P33032 whole entry): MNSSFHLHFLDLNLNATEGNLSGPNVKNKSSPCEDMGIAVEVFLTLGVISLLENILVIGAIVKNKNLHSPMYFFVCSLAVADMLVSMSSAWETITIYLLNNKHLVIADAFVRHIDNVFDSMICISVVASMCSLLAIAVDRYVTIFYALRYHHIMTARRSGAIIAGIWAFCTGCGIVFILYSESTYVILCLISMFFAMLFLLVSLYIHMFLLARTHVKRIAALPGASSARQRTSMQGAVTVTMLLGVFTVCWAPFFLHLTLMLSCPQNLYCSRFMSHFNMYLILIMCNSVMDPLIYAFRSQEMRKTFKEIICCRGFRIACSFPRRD
T2 sequence (Q01726 whole entry): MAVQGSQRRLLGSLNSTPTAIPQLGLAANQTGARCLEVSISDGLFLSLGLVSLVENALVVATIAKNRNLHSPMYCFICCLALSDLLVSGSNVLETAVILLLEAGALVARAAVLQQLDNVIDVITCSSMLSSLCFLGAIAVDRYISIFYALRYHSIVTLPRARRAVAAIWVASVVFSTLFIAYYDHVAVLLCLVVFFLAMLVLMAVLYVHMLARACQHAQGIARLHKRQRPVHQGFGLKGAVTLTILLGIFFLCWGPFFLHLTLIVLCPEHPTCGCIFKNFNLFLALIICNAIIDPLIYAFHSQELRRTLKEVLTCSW

Consider `CC[C@H](C)[C@@H]1NC(=O)[C@@H]2CCCN2C(=O)[C@H](Cc2c[nH]c3ccccc23)NC(=O)[C@H](CCCNC(=N)N)N(C)C(=O)[C@H](Cc2ccccc2)NC(=O)[C@H](Cc2cnc[nH]2)NC(=O)[C@H]([C@@H](C)O)NC(=O)[C@H](NC(C)=O)CCSCc2ccc(cc2)CSCC[C@H](C(N)=O)NC1=O`, for which the figures for the pEC50 (on Melanocortin receptor 3 [1]; at Melanocortin receptor 5; in assay [3]) were 6.3, 4.71 and 8.4, respectively. Besides, the values for the pKi (in assay [2]; on Melanocortin receptor 3 [4]) were 7 and 4.89, respectively.
In the case of `CC[C@H](C)[C@@H]1NC(=O)[C@@H]2CCCN2C(=O)[C@H](Cc2c[nH]c3ccccc23)NC(=O)[C@H](CCCNC(=N)N)N(C)C(=O)[C@H](Cc2ccccc2)NC(=O)[C@H](Cc2cnc[nH]2)NC(=O)[C@H]([C@@H](C)O)NC(=O)[C@H](NC(C)=O)CCSSCC[C@H](C(N)=O)NC1=O`, the figures for the Ratio EC50 in the assay filed under Homo sapiens [5] and in the assay filed under Homo sapiens [10] were 40 and 10, respectively. Also, the Ratio Ki in the assay filed under Homo sapiens [6] was 5; in the assay filed under Homo sapiens [7], 110. Moreover, the negative-log Ki (pKi) was found to be 6.53 at Melanocortin receptor 4 [8], 7.24 in assay [2] and 5.2 at Melanocortin receptor 3 [4]. In addition, the pEC50 is 7.32 at Melanocortin receptor 4 [9], 6.72 at Melanocortin receptor 3 [1], 5.38 on Melanocortin receptor 5 and 8.32 in assay [3].
Take `CC[C@H](C)[C@@H]1NC(=O)[C@@H]2CCCN2C(=O)[C@H](Cc2c[nH]c3ccccc23)NC(=O)[C@H](CCCNC(=N)N)N(C)C(=O)[C@H](Cc2ccccc2)NC(=O)[C@H](Cc2cnc[nH]2)NC(=O)[C@H]([C@@H](C)O)NC(=O)[C@H](NC(C)=O)CCSCc2ccccc2CSCC[C@H](C(N)=O)NC1=O`: the figures for the Ratio EC50 in the assay filed under Homo sapiens [5] and in the assay listed under Homo sapiens [10] were 214 and 85, respectively. Further, the figures for the Ratio Ki in the assay filed under Homo sapiens [6] and in the assay listed under Homo sapiens [7] were 17 and 191, respectively. Also, the negative-log Ki (pKi) on Melanocortin receptor 4 [8] was determined as 5.93; in assay [2], 7.16; at Melanocortin receptor 3 [4], 4.88. Further, the pEC50 on Melanocortin receptor 4 [9] was 6.74; at Melanocortin receptor 3 [1], 6.34; at Melanocortin receptor 5, 4.82; in assay [3], 8.67.
Take `CCCC[C@@H]1NC(=O)[C@@H]2CSc3nnc(nn3)SC[C@H](NC(=O)[C@H](CCCNC(=N)N)NC(=O)[C@H](CC(=O)O)NC(=O)[C@H](Cc3c[nH]c4ccccc34)NC(=O)[C@H](CCCNC(=N)N)NC(=O)[C@H](Cc3ccccc3)NC(=O)[C@H](Cc3cnc[nH]3)NC(=O)CNC1=O)C(=O)N[C@@H](Cc1cnc[nH]1)C(=O)N[C@@H](Cc1ccccc1)C(=O)N[C@@H](CCCNC(=N)N)C(=O)N[C@@H](Cc1c[nH]c3ccccc13)C(=O)N[C@@H](CCCNC(=N)N)C(=O)N2` (cyclo(CHFRWRC[Nle]GHFRWDR); linker 1-7 via X1): the Ratio EC50 in the assay filed under Homo sapiens [5] came to 4; in the assay filed under Homo sapiens [10], 40. The Ratio Ki in the assay filed under Homo sapiens [6] amounted to 47; in the assay filed under Homo sapiens [7] it was 15. The figures for the inhibition constant Ki (on Melanocortin receptor 4 [8]; in [2]; on Melanocortin receptor 3 [4]) were 33.9 nM, 0.724 nM and 11 nM, respectively. The EC50 at Melanocortin receptor 4 [9] is 1.78 nM; on Melanocortin receptor 3 [1], 0.182 nM; in assay [3] (read-out: EC50) it was 0.004 nM; in assay [3] (read-out: pEC50 (converted)), 0.0447 nM.
In the case of `CCCC[C@@H]1NC(=O)[C@@H]2CSc3nnc(c4c3CCC3C(CC4)C3COC(=O)NCCOCCOCCN)SC[C@H](NC(=O)[C@H](CCCNC(=N)N)NC(=O)[C@H](CC(=O)O)NC(=O)[C@H](Cc3c[nH]c4ccccc34)NC(=O)[C@H](CCCNC(=N)N)NC(=O)[C@H](Cc3ccccc3)NC(=O)[C@H](Cc3cnc[nH]3)NC(=O)CNC1=O)C(=O)N[C@@H](Cc1cnc[nH]1)C(=O)N[C@@H](Cc1ccccc1)C(=O)N[C@@H](CCCNC(=N)N)C(=O)N[C@@H](Cc1c[nH]c3ccccc13)C(=O)N[C@@H](CCCNC(=N)N)C(=O)N2` (some centres undefined) (cyclo(CHFRWRC[Nle]GHFRWDR); linker 1-7 via X2), the Ratio EC50 amounted to 12 in the assay listed under Homo sapiens [5] and 123 in the assay filed under Homo sapiens [10]. Also, the Ratio Ki in the assay listed under Homo sapiens [6] amounted to 347; in the assay filed under Homo sapiens [7], 89. Also, the Ki at Melanocortin receptor 4 [8] is 20 nM; in [2] it was 0.0575 nM; on Melanocortin receptor 3 [4], 5.13 nM. Moreover, the EC50 is 1.12 nM on Melanocortin receptor 4 [9], 0.107 nM on Melanocortin receptor 3 [1], less than 0.009 nM in assay [3] (read-out: EC50) and less than 0.00912 nM in assay [3] (read-out: pEC50 (converted)).
